Measurements as given in patent US20150167062A1, “Genome-wide Method of Assessing Interactions Between Chemical Entities And Their Target Molecules” (Whitehead Institute for Biomedical Research, priority 2012, published 2015).

Tested on: MM1.S cells, merged BRD4/JQ1 genomic regions
Test: Specificity analysis: overlap between JQ1 Chem-Seq and BRD4 ChIP-Seq data
Type: binding, human
Procedure: Chemical crosslinking was terminated by addition of TRIS buffer, pH 7.5, to a final concentration of 300 mM TRIS. Cells were harvested using a silicon scraper, centrifuged and the derived pellets washed three times with PBS. Cell nuclei were prepared as follows: cells were lysed in 50 mM HEPES, pH 7.5, 140 mM NaCl, 1 mM EDTA, 10% Glycerol, 0.5% NP-40, 0.25% Triton X-100 plus protease inhibitor cocktail ‘complete’ (Roche), and cell nuclei were washed once with 10 mM Tris-HCL, pH 8.0, 200 mM NaCl, 1 mM EDTA, 0.5 mM EGTA and protease inhibitors. […] Finally, purified DNA fragments were massively parallel sequenced and the sequencing data analyzed as described (33). […]
All ChIP-Seq and Chem-seq datasets were aligned using Bowtie (version 0.12.2) (35) to build version NCBI36/HG18 of the human genome. […] To obtain the normalized read density of ChIP-Seq datasets in any region, ChIP-Seq reads aligning to the region were extended automatically by MACS and the density of reads per basepair (bp) was calculated. The density of reads in each region was normalized to the total number of million mapped reads producing read density in units of reads per million mapped reads per by (rpm/bp).
Chem-Seq and ChIP-Seq data was analyzed to identify genomic regions with substantial JQ 1 Chem-Seq signal but no significant BRD4 ChIP-Seq signal, reasoning these sites might represent off-target interactions of JQ1. […]

Cc1sc2c(c1C)C(c1ccc(Cl)cc1)=N[C@@H](CC(=O)OC(C)(C)C)c1nnc(C)n1-2 [JQ1]
Off-target interaction (JQ1 Chem-Seq signal at regions of the genome without BRD4) (MM1.S cells, GLM differential binding analysis): no identifiable off-target interaction
Genomic regions with significant differences in JQ1 Chem-Seq and BRD4 ChIP-Seq signals (out of 25,060 merged regions, FDR<=0.25, MM1.S cells): 10 regions
